From patent publication US20060069132A1, “Azolecarboxamide herbicides” (priority 2004, published 2006)

Columns and labels:
[1] = tested on: large crabgrass; assay: Test B pre-/postemergence herbicide test; format: in vivo, Digitaria sanguinalis; conditions: for Crabgrass, Large plant response rating: postemergence
How it was run: (§1)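 Visual rating, 0 (no effect) to 100 (complete control), versus untreated controls after 13–15 d in greenhouse. Pre- and postemergence applications (postemergence plants 2–18 cm, 1–4 leaves); flooded paddy arm at 2-leaf stage. Compounds in non-phytotoxic solvent plus surfactant.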

[2] = tested on: giant foxtail; assay: Test B pre-/postemergence herbicide test; format: in vivo, Setaria faberi; conditions: for Foxtail, Giant plant response rating: postemergence
How it was run: as §1

[3] = tested on: barnyardgrass; assay: Test A pre-/postemergence herbicide test; format: in vivo, Echinochloa crus-galli
How it was run: (§2)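 Greenhouse injury scoring (0–100, complete control = 100) at approximately ten days follows simultaneous pre- and postemergence application. Soil received a directed spray after seeding; seedlings of 2–10 cm at the one- to two-leaf stage were sprayed to runoff.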

[4] = tested on: morningglory; assay: Test B pre-/postemergence herbicide test; format: in vivo, Ipomoea coccinea; conditions: for Morningglory plant response rating: postemergence
How it was run: (§3)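 Seeds were planted and treated preemergence with compounds formulated in a non-phytotoxic solvent mixture containing surfactant, while plants at the 1- to 4-leaf stage (2 to 18 cm) received postemergence sprays. Flooded paddy plants were grown to the 2-leaf stage. After 13 to 15 days in a greenhouse, injury was visually rated 0–100 against untreated controls.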

[5] = tested on: redroot pigweed; assay: Test A pre-/postemergence herbicide test; format: in vivo, Amaranthus retroflexus
How it was run: as §2

[6] = tested on: lambsquarters; assay: Test B pre-/postemergence herbicide test; format: in vivo, Chenopodium album; conditions: for Lambsquarters plant response rating: postemergence
How it was run: as §1

[7] = tested on: cocklebur; assay: Test B pre-/postemergence herbicide test; format: in vivo, Xanthium strumarium; conditions: for Cocklebur plant response rating: postemergence
How it was run: as §3

[8] = tested on: velvetleaf; assay: Test B pre-/postemergence herbicide test; format: in vivo, Abutilon theophrasti; conditions: for Velvetleaf plant response rating: postemergence
How it was run: as §1

[9] = tested on: rice; assay: Test B pre-/postemergence herbicide test; format: in vivo, Oryza sativa; conditions: preemergence
How it was run: as §1

[10] = tested on: corn; assay: Test B pre-/postemergence herbicide test; format: in vivo, Zea mays; conditions: for Corn plant response rating: postemergence
How it was run: as §1

[11] = tested on: giant foxtail; assay: Test A pre-/postemergence herbicide test; format: in vivo, Setaria faberi
How it was run: as §2

[12] = tested on: barnyardgrass; assay: Test B flooded paddy test; format: in vivo, Echinochloa crus-galli; conditions: 1000 g ai/ha, scale 0 to 100 (0 no effect, 100 complete control)
How it was run: (§4)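 Postemergence plants were sprayed with formulated test chemicals at 2 to 18 cm height (1- to 4-leaf stage); paddy species were grown to the 2-leaf stage. After 13 to 15 days in a greenhouse, injury was rated visually against untreated controls on a 0–100 scale (0 = no effect, 100 = complete control).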

[13] = tested on: velvetleaf; assay: Test A pre-/postemergence herbicide test; format: in vivo, Abutilon theophrasti
How it was run: as §2

[14] = tested on: small flower umbrella sedge; assay: Test B flooded paddy test; format: in vivo, Cyperus difformis; conditions: 1000 g ai/ha, scale 0 to 100 (0 no effect, 100 complete control)
How it was run: as §4

[15] = tested on: barnyardgrass; assay: Test B pre-/postemergence herbicide test; format: in vivo, Echinochloa crus-galli; conditions: for Barnyardgrass plant response rating: postemergence
How it was run: as §3

[16] = tested on: pigweed; assay: Test B pre-/postemergence herbicide test; format: in vivo, Amaranthus retroflexus; conditions: for Pigweed plant response rating: postemergence
How it was run: as §1

[17] = tested on: blackgrass; assay: Test B postemergence herbicide test; format: in vivo, Alopecurus myosuroides; conditions: postemergence
How it was run: as §4

[18] = tested on: morningglory; assay: Test A pre-/postemergence herbicide test; format: in vivo, Ipomoea spp.
How it was run: as §2

[19] = tested on: large crabgrass; assay: Test A pre-/postemergence herbicide test; format: in vivo, Digitaria sanguinalis
How it was run: as §2

[20] = tested on: wild oat; assay: Test B postemergence herbicide test; format: in vivo, Avena fatua; conditions: postemergence
How it was run: (§5)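 Read-out: visual comparison with controls, scored 0 to 100, where 100 means complete control and 0 no effect. Formulated chemicals were applied postemergence to plants 2–18 cm tall (1- to 4-leaf), or to flooded-paddy plants at the 2-leaf stage, then held 13 to 15 days under glass.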

[21] = tested on: Surinam grass; assay: Test B pre-/postemergence herbicide test; format: in vivo, Urochloa decumbens; conditions: for Surinam Grass plant response rating: postemergence
How it was run: as §1

[22] = tested on: ducksalad; assay: Test B flooded paddy test; format: in vivo, Heteranthera limosa; conditions: 1000 g ai/ha, scale 0 to 100 (0 no effect, 100 complete control)
How it was run: as §4

[23] = tested on: wheat; assay: Test B postemergence herbicide test; format: in vivo, Triticum aestivum; parameters: key to Wheat plant response rating: 0 = no effect, 100 = complete control; conditions: postemergence
How it was run: as §5

[24] = tested on: rice; assay: Test B flooded paddy test; format: in vivo, Oryza sativa; conditions: 1000 g ai/ha, scale 0 to 100 (0 no effect, 100 complete control)
How it was run: as §5

[25] = 125 g ai/ha, 0 is no effect, 100 is complete control, preemergence
[26] = 125 g ai/ha, visual rating, scale 0 (no effect) to 100 (complete control)
[27] = 500 g ai/ha, visual rating, 0 = no effect, 100 = complete control, preemergence
[28] = 500 g ai/ha, scale 0 to 100, 0 is no effect, 100 is complete control
[29] = Postemergence, 500 g ai/ha, 0 to 100 scale, 0 no effect, 100 complete control
[30] = Postemergence, 2000 g ai/ha, 0 to 100 scale, 0 no effect, 100 complete control
[31] = Preemergence, 2000 g ai/ha, visual rating, 0 to 100 scale (0 no effect, 100 complete control)
[32] = preemergence, 500 g ai/ha, visual injury, 0 to 100 scale (0 no effect, 100 complete control)

## C#CCNC(=O)c1cccc(NC(=O)c2cc(C(C)(C)C)nn2C)n1 [Compound 316]
[1]; [25]
  Plant response rating (0 to 100 scale), Crabgrass, Large: 0
[1]; [26]
  Crabgrass, Large plant response rating: 10
[1]; [27]
  Plant response rating, Crabgrass, Large: 20
[1]; [28]
  Crabgrass, Large plant response rating: 10
[2]; [25]
  Plant response rating (0 to 100 scale), Foxtail, Giant: 0
[2]; [26]
  Foxtail, Giant plant response rating: 0
[2]; [27]
  Plant response rating, Foxtail, Giant: 0
[2]; [28]
  Foxtail, Giant plant response rating: 20
[3]; [29]
  Barnyardgrass plant response rating: 20
[3]; [30]
  Plant response rating, Barnyardgrass: 45
[3]; [31]
  Barnyardgrass plant response rating: 10
[3]; [32]
  Barnyardgrass plant response rating: 0
[4]; [25]
  Plant response rating (0 to 100 scale), Morningglory: 0
[4]; [26]
  Morningglory plant response rating: 10
[4]; [27]
  Plant response rating, Morningglory: 0
[4]; [28]
  Morningglory plant response rating: 10
[5]; [29]
  Pigweed plant response rating: 25
[5]; [30]
  Plant response rating, Pigweed: 80
[5]; [31]
  Pigweed plant response rating: 65
[5]; [32]
  Pigweed plant response rating: 0
[6]; [25]
  Plant response rating (0 to 100 scale), Lambsquarters: 0
[6]; [26]
  Lambsquarters plant response rating: 40
[6]; [27]
  Plant response rating, Lambsquarters: 60
[6]; [28]
  Lambsquarters plant response rating: 70
[7]; [25]
  Plant response rating (0 to 100 scale), Cocklebur: 0
[7]; [26]
  Cocklebur plant response rating: 0
[7]; [27]
  Plant response rating, Cocklebur: 0
[7]; [28]
  Cocklebur plant response rating: 20
[8]; [25]
  Plant response rating (0 to 100 scale), Velvetleaf: 0
[8]; [26]
  Velvetleaf plant response rating: 0
[8]; [27]
  Plant response rating, Velvetleaf: 20
[8]; [28]
  Velvetleaf plant response rating: 40
[9]; 125 g ai/ha, 0 is no effect, 100 is complete control
  Plant response rating (0 to 100 scale), Rice: 0
[9]; 500 g ai/ha, visual rating, 0 = no effect, 100 = complete control
  Plant response rating, Rice: 0
[10]; [25]
  Plant response rating (0 to 100 scale), Corn: 0
[10]; [26]
  Corn plant response rating: 10
[10]; [27]
  Plant response rating, Corn: 0
[10]; [28]
  Corn plant response rating: 20
[11]; [29]
  Foxtail, Giant plant response rating: 20
[11]; [30]
  Plant response rating, Foxtail, Giant: 30
[11]; [31]
  Foxtail, Giant plant response rating: 0
[11]; [32]
  Foxtail, Giant plant response rating: 0
[12]
  Barnyardgrass plant response rating: 0
[13]; [29]
  Velvetleaf plant response rating: 15
[13]; [30]
  Plant response rating, Velvetleaf: 20
[13]; [31]
  Velvetleaf plant response rating: 15
[13]; [32]
  Velvetleaf plant response rating: 5
[14]
  Sedge, Umbrella plant response rating: 0
[15]; [25]
  Plant response rating (0 to 100 scale), Barnyardgrass: 0
[15]; [26]
  Barnyardgrass plant response rating: 0
[15]; [27]
  Plant response rating, Barnyardgrass: 0
[15]; [28]
  Barnyardgrass plant response rating: 40
[16]; [25]
  Plant response rating (0 to 100 scale), Pigweed: 0
[16]; [26]
  Pigweed plant response rating: 10
[16]; [27]
  Plant response rating, Pigweed: 90
[16]; [28]
  Pigweed plant response rating: 50
[17]; [26]
  Blackgrass plant response rating: 0
[17]; [28]
  Blackgrass plant response rating: 0
[18]; [29]
  Morningglory plant response rating: 20
[18]; [30]
  Plant response rating, Morningglory: 30
[18]; [31]
  Morningglory plant response rating: 0
[18]; [32]
  Morningglory plant response rating: 0
[19]; [29]
  Crabgrass, Large plant response rating: 25
[19]; [30]
  Plant response rating, Crabgrass, Large: 45
[19]; [31]
  Crabgrass, Large plant response rating: 35
[19]; [32]
  Crabgrass, Large plant response rating: 10
[20]; [26]
  Oat, Wild plant response rating: 0
[20]; [28]
  Oat, Wild plant response rating: 20
[21]; [25]
  Plant response rating (0 to 100 scale), Surinam Grass: 0
[21]; [26]
  Surinam Grass plant response rating: 10
[21]; [27]
  Plant response rating, Surinam Grass: 0
[21]; [28]
  Surinam Grass plant response rating: 10
[22]
  Ducksalad plant response rating: 0
[23]; [26]
  Wheat plant response rating: 0
[23]; [28]
  Wheat plant response rating: 0
[24]
  Rice plant response rating: 0
